Structures are written as SMILES.

The assay concerns Plasmodium falciparum. The assay is described as follows: GSK_TCMDC: Inhibition of Plasmodium falciparum 3D7 in whole erythrocytes, using parasite LDH activity as an index of growth. In kind it is functional, organism-based. To be noted: Plasmodium falciparum, 3D7.

In turn, `CCCCCCCNc1cc(C)nc2ccc(OC)cc12` registered an XC50 of 671 nM.
For `O=C(NCc1ccccc1)NC(CCCN1CCC(Oc2cccc(Cl)c2)CC1)c1ccc(Cl)c(Cl)c1` (stereo unspecified) the value was 862 nM; for `CCOc1ccc2c(=NN=Cc3cc(OC)c(OC)cc3OC)cc(C)[nH]c2c1`, 997 nM; for `CS(=O)(=O)Nc1ccc2[nH]cc(C3CCN(CC(O)C4CCN(C(=O)/C=C/c5ccc(Cl)c(Cl)c5)CC4)CC3)c2c1` (stereo unspecified), 1760 nM.
Then `COc1cc(OC)cc(C(=O)N2CCOC(CCN3CCC(c4ccccc4)CC3)(c3ccc(Cl)c(Cl)c3)C2)c1` (stereo unspecified), with 442 nM; and `Cc1cccc2nc(-c3cccc(-c4cccc(CN5CCCC5CN)c4)c3)[nH]c12` (stereo unspecified), with 767 nM; and `COc1ccccc1N1CCN(CCCCNC(=O)c2ccc(NC(=O)c3ccc4ccccc4c3)cc2)CC1`, with 800 nM.
Then `O=C(Nc1ccccc1)N1CCOC(CCN2CCC(F)(F)CC2)(c2ccc(Cl)c(Cl)c2)C1` (stereo unspecified), with 185 nM; and `CC(CN1CCN(C)CC1)C(=O)Nc1ccc(-c2ccc(-c3nc4ccccc4[nH]3)cc2)cc1` (stereo unspecified), with 954 nM; and `O=C(Nc1ccc2c(c1)OCO2)c1cc(-c2cccnc2)cnc1NCc1ccc2c(c1)OCO2`, with 1190 nM.
As to `CC(C)(C)NCC(O)COc1ccc(Cl)cc1C1=NNC(=O)CC1` (stereo unspecified), the XC50 came to 150 nM.
Then `COc1ccc(Nc2nc(NCc3ccc(-n4ccnc4)cc3)cc(-c3ccc(OC)cc3)n2)cc1`, with 827 nM; and `CC(C)C(=O)NC(Nc1ccc([N+](=O)[O-])cc1)C(Cl)(Cl)Cl` (stereo unspecified), with 835 nM; and `CN(CCCNC(=S)NC12CC3CC(CC(C3)C1)C2)CCCNc1ccnc2cc(Cl)ccc12`, with 121 nM.
Then `CNCCCCCCc1ccc(CC(C)NCC(O)c2cccc(Cl)c2)cc1` (stereo unspecified), with 854 nM; and `CC(C)(C)c1ccc(Cn2c(=N)n(CC(=O)c3ccc(-c4ccccc4)cc3)c3ccccc32)cc1`, with 158 nM.
Then `O=C(Nc1cc(F)cc(F)c1)N1CCOC(CCN2CCC(c3ccccc3)CC2)(c2ccc(Cl)c(Cl)c2)C1` (stereo unspecified), with 466 nM; and `CCCCCCCN1CC[C@@H](CCCc2ccnc3ccc(OC)cc23)[C@@H](CNC)C1`, with 211 nM.
`Cc1nc(C)c(-c2ccc(Cl)cc2Cl)c(O)c1Br`: the XC50 is 1010 nM.
For `O=C(Nc1ccc(C(=O)N(Cc2ccc3c(c2)OCO3)C2CCCC2)cc1)c1cccs1` the value was 650 nM; for `N#Cc1ccc(NC(=O)c2ccc(Cc3ccc4c(c3)CCN(C3CCC3)CC4)cn2)cc1`, 1120 nM.
Then `C#CCNC(=O)c1ccc(-c2ccnc(Nc3cccc(CCCN4CCOCC4)c3)n2)s1`, with 1000 nM.
Then `C=C1N(C)c2cc([N+](=O)[O-])c(N)cc2C1(C)C`, with 486 nM; and `C=CCC(C)n1ncc2c3c(N)nc(N)nc3ccc21` (stereo unspecified), with 50 nM.
In turn, `COc1ccc2nc(-c3cc(-c4ccc(NC(=O)CN5CCOCC5)cc4)cnc3N)[nH]c2c1` came in with an XC50 of 616 nM.
Then `CCCCCCN1CCN(Cc2cccc(NC(=O)c3cc4ccccc4s3)c2)CC1`, with 912 nM.
Turning to `CCOC(=O)CC[C@@H](NC(=O)c1ccc(NCc2ccc3ccc4nc(C)[nH]c(=O)c4c3c2)cc1F)C(=O)N[C@@H](Cc1c[nH]c2ccccc12)C(=O)OCC`, the XC50 was 1030 nM.
For `CN1CCN(c2ccnc3ccc(NC(=O)Nc4cccc5c(Br)cccc45)cc23)CC1` the value was 153 nM; for `CCCCCn1c(Sc2ccc(C#N)c([N+](=O)[O-])c2)nnc1-c1cccc(Cl)c1`, 768 nM; for `O=C(C=Cc1ccc(Cl)c(Cl)c1)NCCCCCN1CCCC(CCCNS(=O)(=O)c2ccc(Br)cc2)C1` (stereo unspecified), 955 nM.
For `CCC(=O)c1c(C)n(-c2ncnc3c2nc(C)n3-c2ccc(C)cc2C)c2ccccc12` the value was 645 nM; for `CN(CCc1ccccn1)c1cccc2c1nc(-c1cccnc1)n2CCNCc1ccccc1`, 1060 nM; for `CC(C)(C)C(=O)Nc1ccc(N2CCN(C(c3ccccc3)c3ccccc3)CC2)c(Cl)c1`, 662 nM.
For `Cc1ccc2[nH]c3c(c2c1)CC(C(=O)NCCC(C)C)NC31CCN(Cc2ccccc2)CC1` (stereo unspecified) the value was 932 nM; for `N#Cc1cccc(Nc2nccc(Nc3ccc(Oc4ccccc4)cc3)n2)c1`, 830 nM; for `Cc1cccc2nc(-c3cccc(-c4ccc(NC(=O)COc5ccccc5C(N)=O)cc4)c3)[nH]c12`, 889 nM.
The compound `COC(=O)c1cccc(CNCc2cccc(-c3cccc(-c4nc5cccc(C)c5[nH]4)c3)c2)c1` returned an XC50 of 186 nM.
For the compound `CC[C@H](C)CNC(=O)c1ccnc(-c2cccc(CN3CCC(N4CCCC4)CC3)c2)c1`, the XC50 worked out at 851 nM.
`Cc1nc(C)c(CC(=O)Nc2ccc(-c3ccc(-c4nc5cc(C(F)(F)F)ccc5[nH]4)s3)cc2)s1`: the XC50 stood at 1030 nM.
For `CCCCCCc1cc(OC)c(OC)cc1C(C)Nc1ccnc2cc(Cl)ccc12` (stereo unspecified) the value was 488 nM; for `Cc1[nH]c(C)c(-c2ccc(OCc3ccc(F)cc3)cc2)c(=O)c1Cl`, 566 nM; for `Cc1ccccc1C1CCN(C2CCC(NC(=O)/C=C/c3ccc(Cl)cc3)CC2)CC1` (stereo unspecified), 805 nM.
For `Cc1cc(N[C@@H](Cc2ccccc2)C(=O)NCc2cccs2)nc(Nc2ccccc2)n1` the value was 1240 nM; for `O=C(CC1SC(N2N=C(c3cccs3)CC2c2ccccc2)=NC1=O)Nc1ccc(Cl)cc1` (stereo unspecified), 1680 nM.
Then `CCC(C)c1ccc(NC(=O)c2ccc(S(=O)(=O)Nc3ccc(OC)c(N4CCN(CC5CC5)CC4)c3)cc2)cc1` (stereo unspecified), with 703 nM; and `COc1cc(C(=O)N2COCC(CCCN3CCC(N4CCCC4)CC3)(c3ccc(Cl)c(Cl)c3)C2)cc(OC)c1OC` (stereo unspecified), with 785 nM.
The compound `COc1ccc(-c2cccc(NC(=O)c3ccccc3)c2)cc1CN1CCCN(C)CC1` showed an XC50 of 733 nM.
Then `COc1ccc(C(=O)N2CCC3(CC2)C(=O)N(CC(=O)NCC2CCCCC2)CN3c2ccccc2)c(OC)c1`, with 119 nM; and `CC(=O)Nc1ccc(NC(=O)c2cc(-c3cc(Cl)ccc3O)n[nH]2)cc1`, with 176 nM; and `COc1cccc(-c2cnc(N)c(-c3nc4ccc(C(F)(F)F)cc4[nH]3)c2)c1`, with 652 nM.
For the compound `C[C@H](Nc1c(Nc2ccc3[nH]ccc3c2)c(=O)c1=O)C1CCCCC1`, the XC50 was determined as 213 nM.
For `Cc1cccc2nc(-c3ccc(-c4cccc(CN5CCC(C(N)=O)CC5)c4)s3)[nH]c12` the value was 1260 nM; for `O=C(Nc1cccc(Cl)c1Cl)Nc1ccnc2ccccc12`, 745 nM.
Then `O=c1[nH]nc(-c2ccc(N3CCCC3)c([N+](=O)[O-])c2)c2ccccc12`, with 631 nM.
For `CC(CO)(CO)NCc1cc2c3ccccc3c(CNC(C)(CO)CO)cc2c2ccccc12` the value was 723 nM; for `CN(C)CCNCc1ccc(-c2ccc(-c3nc4ccccc4[nH]3)s2)cc1`, 569 nM; for `Cc1ccccc1Oc1nc2ccccc2nc1SCC(=O)NC(C)C`, 197 nM.
In the case of `O=C(Nc1ccc(N2CCCCC2)c(Cl)c1)c1ccco1`, the XC50 is 409 nM.
For `COc1cc(C(=O)Nc2cccc(-c3nc4ccccc4[nH]3)c2)ccc1OC(C)=O` the value was 762 nM; for `Cc1cccc(Nc2nc(NCCCCN)nc3cc[nH]c(=O)c23)c1`, 733 nM; for `CN1CCN(CC(=O)Nc2ccc(-c3cccc(-c4nc5cc(F)ccc5[nH]4)c3)cc2)CC1`, 832 nM.
Then `COc1ccc(CCn2c(=N)c(C(=O)NC3CCCC3)cc3c(=O)n4ccccc4nc32)cc1`, with 678 nM; and `CS(=O)(=O)CCNCc1cccc(-c2cc3nccc(Nc4ccc(Oc5ccccc5)cc4)c3cc2Cl)c1`, with 625 nM.
For `CC12CN3CC(C)(CN(C1)C3c1cc(Br)ccc1O)C2O` (stereo unspecified) the value was 228 nM.
Take `O=C(Nc1ccc(C(=O)OCC2CCCCC2)cc1)N[C@@H](Cc1ccc(O)cc1)C(=O)NC1CCN(Cc2ccc(O)cc2)C1` (stereo partly specified): the XC50 was found to be 874 nM.
For `O=C(Nc1ccc2c(c1)CCN(C1CCC1)CC2)c1ccc(-c2cn3ccccc3n2)cc1` the value was 879 nM; for `COc1ccc(C=NN=c2cc[nH]c3ccccc23)c2ccccc12`, 696 nM.
For `COc1cccc(CNCC(C)(C)c2nc(-c3ccc(Cl)c(O)c3)c(-c3ccncc3)[nH]2)c1` the value was 693 nM.
In the case of `CC1(C)NC(N)=NC(=N)N1OCCOc1ccc2ccccc2c1`, the XC50 came to 3.2 nM.
Then `Cc1cc(N[C@@H](CC(C)C)C(=O)NCc2cccs2)nc(NCCc2ccc(F)cc2)n1`, with 800 nM; and `Oc1ccc(-c2ccccc2)cc1CN1CCCCCC1`, with 1170 nM; and `CN(Cc1ccc(NC(=O)NC2CCN(C(=O)/C=C/c3ccc(Cl)c(Cl)c3)CC2)cc1)C1CCOCC1`, with 876 nM.
Then `CN1CCN(CC(=O)Nc2cccc(-c3ccc(-c4nc5cc(F)ccc5[nH]4)cc3)c2)CC1`, with 703 nM; and `NC1CCN(Cc2cccc(-c3ccc(-c4nc5ccccc5[nH]4)s3)c2)C1` (stereo unspecified), with 727 nM; and `O=C(Nc1ccc(Cl)c(Cl)c1)Nc1ccc2c(c1)CCNCC2`, with 532 nM.
Regarding `CS(=O)(=O)NCCCNCc1cccc(-c2cccc(-c3nc4cc(C(F)(F)F)ccc4[nH]3)c2)c1`, the XC50 worked out at 467 nM.
Then `COc1ccccc1CCNc1nc(C)cc(N[C@@H](Cc2ccccc2)C(=O)NCc2cccc(F)c2)n1`, with 867 nM.
Then `O=C(N[C@@H](Cc1ccccc1)[C@H](O)CNCCC(F)(F)F)c1cccc(CCC2CC2)c1`, with 1020 nM.
For `Cc1cc2c(cc1C(F)(F)F)N(C(=O)Nc1cnc(OCCN(C)C)c(C(F)(F)F)c1)CC2` the value was 966 nM; for `O=C(NCCc1ccccc1)N(Cc1cccc(-c2ccc(CNCc3ccc4c(c3)OCO4)cc2)c1)C1CCN(Cc2ccccc2)CC1`, 661 nM; for `Cc1[nH]c(C)c(-c2ccc(-c3ccc(Cl)cc3)nc2)c(=O)c1Br`, 113 nM.
With `CCc1c[nH]c2c(N3CCCCC3=O)cc(C(=O)N[C@@H](Cc3ccccc3)[C@H](O)CNCc3cccc(OC)c3)cc12`, the XC50 was 169 nM.
With `Cc1ccc(Cn2ccc3c4c(N)nc(N)nc4ccc32)cc1`, the XC50 came to 3.2 nM.
Then `COc1ccc2nc3ccccc3c(NCCN3CCN(C)CC3)c2c1`, with 1290 nM; and `Cc1ccc(NC(C)C(=O)Nc2ccc(C#N)cc2)cc1S(=O)(=O)N1CCCCC1` (stereo unspecified), with 545 nM; and `O=S(=O)(c1ccc(Oc2ccccc2)cc1)N(CCC(O)(C(F)(F)F)C(F)(F)F)Cc1cccc(O)c1`, with 491 nM.

The record behind these values is ChEMBL document CHEMBL1157539, “Thousands of chemical starting points for antimalarial lead identification” (Nature, 2010).
